Test results published in ChEMBL document CHEMBL3112450, “Synthesis and in vitro antitumor evaluation of primary amine substituted quinazoline linked benzimidazole” (Bioorg Med Chem Lett, 2014).

Key:
Assay type in all cases: functional
[1] = tested on: HT-29; test: Cytotoxicity against human HT-29 cells assessed as cell growth at 10^-5 M after 48 hrs by SRB assay; settings: HT-29, 48 h, read-out: Activity
[2] = tested on: CAKI-1; test: Cytotoxicity against human Caki1 cells assessed as cell growth at 10^-4 M after 48 hrs by SRB assay; settings: CAKI-1, 48 h, read-out: Activity
[3] = tested on: NCI-H23; test: Cytotoxicity against human NCI-H23 cells assessed as cell growth at 10^-5 M after 48 hrs by SRB assay; settings: NCI-H23, 48 h, read-out: Activity
[4] = tested on: MCF7; test: Cytotoxicity against human MCF7 cells after 48 hrs by SRB assay; settings: MCF7, 48 h
[5] = tested on: SK-MEL-2; test: Cytotoxicity against human SK-MEL-2 cells assessed as cell growth at 10^-4 M after 48 hrs by SRB assay; settings: SK-MEL-2, 48 h, read-out: Activity
[6] = tested on: SF-295; test: Cytotoxicity against human SF295 cells assessed as cell growth at 10^-8 M after 48 hrs by SRB assay; settings: SF-295, 48 h, read-out: Activity
[7] = tested on: T47D; test: Cytotoxicity against human T47D cells assessed as cell growth at 10^-5 M after 48 hrs by SRB assay; settings: read-out: Activity
[8] = tested on: KM12; test: Cytotoxicity against human KM12 cells assessed as cell growth at 10^-5 M after 48 hrs by SRB assay; settings: KM12, 48 h, read-out: Activity
[9] = Cytotoxicity against human Hs578T cells assessed as cell growth at 10^-7 M after 48 hrs by SRB assay; settings: Hs-578T, read-out: Activity
[10] = tested on: NCI-H522; test: Cytotoxicity against human NCI-H522 cells after 48 hrs by SRB assay; settings: NCI-H522, 48 h
[11] = tested on: SN12C; test: Cytotoxicity against human SN12C cells assessed as cell growth at 10^-5 M after 48 hrs by SRB assay; settings: read-out: Activity
[12] = tested on: NCI-H522; test: Cytotoxicity against human NCI-H522 cells assessed as cell growth at 10^-5 M after 48 hrs by SRB assay; settings: NCI-H522, 48 h, read-out: Activity
[13] = tested on: UACC-62; test: Cytotoxicity against human UACC62 cells assessed as cell growth at 10^-7 M after 48 hrs by SRB assay; settings: UACC-62, 48 h, read-out: Activity
[14] = tested on: BT-549; test: Cytotoxicity against human BT549 cells after 48 hrs by SRB assay; settings: BT-549, 48 h
[15] = Cytotoxicity against human OVCAR4 cells assessed as cell growth at 10^-5 M after 48 hrs by SRB assay; settings: OVCAR-4, 48 h, read-out: Activity
[16] = tested on: SK-OV-3; test: Cytotoxicity against human SKOV3 cells assessed as cell growth at 10^-6 M after 48 hrs by SRB assay; settings: SK-OV-3, 48 h, read-out: Activity
[17] = tested on: SK-MEL-2; test: Cytotoxicity against human SK-MEL-2 cells assessed as cell growth at 10^-5 M after 48 hrs by SRB assay; settings: SK-MEL-2, 48 h, read-out: Activity
[18] = tested on: NCI-H522; test: Cytotoxicity against human NCI-H522 cells assessed as cell growth at 10^-7 M after 48 hrs by SRB assay; settings: NCI-H522, 48 h, read-out: Activity
[19] = tested on: SK-OV-3; test: Cytotoxicity against human SKOV3 cells assessed as cell growth at 10^-7 M after 48 hrs by SRB assay; settings: SK-OV-3, 48 h, read-out: Activity
[20] = tested on: IGROV-1; test: Cytotoxicity against human IGROV1 cells assessed as cell growth at 10^-5 M after 48 hrs by SRB assay; settings: IGROV-1, 48 h, read-out: Activity
[21] = tested on: 786-0; test: Cytotoxicity against human 786-0 cells assessed as cell growth at 10^-8 M after 48 hrs by SRB assay; settings: 786-0, 48 h, read-out: Activity
[22] = tested on: LOX IMVI; test: Cytotoxicity against human LOXIMVI cells assessed as cell growth at 10^-5 M after 48 hrs by SRB assay; settings: read-out: Activity
[23] = Cytotoxicity against human OVCAR5 cells assessed as cell growth at 10^-5 M after 48 hrs by SRB assay; settings: OVCAR-5, 48 h, read-out: Activity
[24] = tested on: HOP-92; test: Cytotoxicity against human HOP92 cells assessed as cell growth at 10^-6 M after 48 hrs by SRB assay; settings: HOP-92, 48 h, read-out: Activity
[25] = Cytotoxicity against human UACC257 cells assessed as cell growth at 10^-5 M after 48 hrs by SRB assay; settings: UACC-257, 48 h, read-out: Activity
[26] = tested on: NCI-H460; test: Cytotoxicity against human NCI-H460 cells assessed as cell growth at 10^-5 M after 48 hrs by SRB assay; settings: NCI-H460, 48 h, read-out: Activity
[27] = tested on: U-251; test: Cytotoxicity against human U251 cells assessed as cell growth at 10^-5 M after 48 hrs by SRB assay; settings: U-251, 48 h, read-out: Activity
[28] = tested on: IGROV-1; test: Cytotoxicity against human IGROV1 cells assessed as cell growth at 10^-8 M after 48 hrs by SRB assay; settings: IGROV-1, 48 h, read-out: Activity
[29] = tested on: UACC-62; test: Cytotoxicity against human UACC62 cells assessed as cell growth at 10^-5 M after 48 hrs by SRB assay; settings: UACC-62, 48 h, read-out: Activity
[30] = tested on: K562; test: Cytotoxicity against human K562 cells assessed as cell growth at 10^-8 M after 48 hrs by SRB assay; settings: K562, 48 h, read-out: Activity
[31] = tested on: SK-OV-3; test: Cytotoxicity against human SKOV3 cells assessed as cell growth at 10^-5 M after 48 hrs by SRB assay; settings: SK-OV-3, 48 h, read-out: Activity
[32] = tested on: MDA-MB-231; test: Cytotoxicity against human MDA-MB-231 cells assessed as cell growth at 10^-5 M after 48 hrs by SRB assay; settings: MDA-MB-231, 48 h, read-out: Activity
[33] = tested on: OVCAR-3; test: Cytotoxicity against human OVCAR3 cells assessed as cell growth at 10^-5 M after 48 hrs by SRB assay; settings: OVCAR-3, 48 h, read-out: Activity
[34] = tested on: M14; test: Cytotoxicity against human M14 cells assessed as cell growth at 10^-5 M after 48 hrs by SRB assay; settings: M14, 48 h, read-out: Activity
[35] = tested on: HT-29; test: Cytotoxicity against human HT-29 cells assessed as cell growth at 10^-4 M after 48 hrs by SRB assay; settings: HT-29, 48 h, read-out: Activity
[36] = tested on: K562; test: Cytotoxicity against human K562 cells assessed as cell growth at 10^-5 M after 48 hrs by SRB assay; settings: K562, 48 h, read-out: Activity
[37] = tested on: A498; test: Cytotoxicity against human A498 cells after 48 hrs by SRB assay; settings: A498, 48 h
[38] = tested on: RXF 393; test: Cytotoxicity against human RXF393 cells assessed as cell growth at 10^-5 M after 48 hrs by SRB assay; settings: RXF 393, 48 h, read-out: Activity
[39] = tested on: DU-145; test: Cytotoxicity against human DU145 cells assessed as cell growth at 10^-4 M after 48 hrs by SRB assay; settings: DU-145, 48 h, read-out: Activity
[40] = tested on: SF-295; test: Cytotoxicity against human SF295 cells assessed as cell growth at 10^-5 M after 48 hrs by SRB assay; settings: SF-295, 48 h, read-out: Activity

C=CCn1c(C)nc2cc(Nc3nc(Nc4ccc5nc(C)n(CC=C)c5c4)c4ccccc4n3)ccc21
growth at 10 µM [1]: -71% | growth at 100 µM [2]: -54% | growth at 10 µM [3]: -69.2% | GI50 [4]: 0.209 µM | growth at 100 µM [5]: -17% | growth at 0.01 µM [6]: 90% | growth at 10 µM [7]: -60.4% | growth at 10 µM [8]: -100% | growth at 0.1 µM [9]: 96% | GI50 [10]: 0.171 µM | TGI [10]: 0.332 µM | growth at 10 µM [11]: -76% | growth at 10 µM [12]: -94.8% | growth at 0.1 µM [13]: 98% | GI50 [14]: 1.68 µM | TGI [14]: 3.1 µM | growth at 10 µM [15]: -100% | growth at 1 µM [16]: 97% | growth at 10 µM [17]: -84.1% | growth at 0.1 µM [18]: 90% | growth at 0.1 µM [19]: 106% | growth at 10 µM [20]: -93.8% | growth at 0.01 µM [21]: 99% | growth at 10 µM [22]: -94% | growth at 10 µM [23]: -98% | growth at 1 µM [24]: 45% | growth at 10 µM [25]: -79.8% | growth at 10 µM [26]: -84.2% | growth at 10 µM [27]: -90.7% | growth at 0.01 µM [28]: 103% | growth at 10 µM [29]: -94% | growth at 0.01 µM [30]: 103% | growth at 10 µM [31]: -95.7% | growth at 10 µM [32]: -89% | growth at 10 µM [33]: -100% | growth at 10 µM [34]: -88% | growth at 100 µM [35]: -50% | growth at 10 µM [36]: -67% | GI50 [37]: 1.66 µM | LC50 [37]: 5.5 µM | TGI [37]: 3.03 µM | growth at 10 µM [38]: -97.4% | growth at 100 µM [39]: -98% | growth at 10 µM [40]: -100%

C=CCn1c(C)nc2ccc(Nc3nc(Nc4ccc(F)cc4)nc4ccccc34)cc21
growth at 10 µM [1]: 5% | growth at 100 µM [2]: -53% | growth at 10 µM [3]: 28% | GI50 [4]: 1.48 µM | TGI [4]: 3.44 µM | growth at 100 µM [5]: -70% | growth at 0.01 µM [6]: 84% | growth at 10 µM [7]: -47% | growth at 10 µM [8]: 22% | growth at 0.1 µM [9]: 99% | GI50 [10]: 3.12 µM | TGI [10]: 13.4 µM | CC50 ([10]; read-out: LC50 (the source's name)): 75.5 µM | growth at 10 µM [11]: 11% | growth at 10 µM [12]: 8% | growth at 0.1 µM [13]: 95% | GI50 [14]: 3.35 µM | LC50 [14]: 73.1 µM | TGI [14]: 18.1 µM | growth at 10 µM [15]: -26% | growth at 1 µM [16]: 100% | growth at 10 µM [17]: 4% | growth at 0.1 µM [18]: 84% | growth at 0.1 µM [19]: 112% | growth at 10 µM [20]: 39% | growth at 0.01 µM [21]: 93% | growth at 10 µM [22]: 24% | growth at 10 µM [23]: 59% | growth at 1 µM [24]: 41% | growth at 10 µM [25]: 66% | growth at 10 µM [26]: 11% | growth at 10 µM [27]: 17% | growth at 0.01 µM [28]: 95% | growth at 10 µM [29]: -69% | growth at 0.01 µM [30]: 102% | growth at 10 µM [31]: -74% | growth at 10 µM [32]: -8% | growth at 10 µM [33]: 30% | growth at 10 µM [34]: 8% | growth at 100 µM [35]: -34% | growth at 10 µM [36]: 3% | GI50 [37]: 4.36 µM | LC50 [37]: 69 µM | TGI [37]: 24.1 µM | growth at 10 µM [38]: -92% | growth at 100 µM [39]: -84% | growth at 10 µM [40]: 31.4%
